This is an account of results in patent US20070203159A1, “Purine compounds” (priority 2006, published 2007).

The subject of data set [1] is M. tuberculosis Erdman (ATCC 35801). Description: 90% and 99% effective concentration in M. tuberculosis infected macrophages. The data set is classed as cell-based. Conditions: for EC99 / EC^+99: monolayers of mouse bone marrow macrophages; for EC99: […]% reduction in residual mycobacterial growth after 7 days compared with untreated controls; for EC^+99: reduction in residual mycobacterial growth after 7 days compared with untreated controls.

Data set [2] deals with Mycobacterium tuberculosis H37Rv (ATCC 27294). The data set can be described thus: Microplate Alamar Blue Assay (MABA): primary screening and MIC determination. The data set is classed as cell-based. Particulars: Mycobacterium tuberculosis; retest at lower concentrations in the MABA; read-out: MIC. For orientation: The colour change of resazurin is a common sign of viable cells or microbes.

Each structure is given as a SMILES string. Values after ≈ are worked out from the molar mass of the structure shown. Where only a bound is given, the exact number is not on record here.

The EC99 is the concentration needed for an effect of 99%. What is called MIC is the lowest concentration found to suppress growth. For orientation: melting point means the temperature, or range, at which the solid turns liquid. `COc1ccc(Cn2cnc3c(-c4ccco4)ncnc32)cc1` [Example 33, 6-(2-Furyl)-9-(4-methoxyphenylmethyl)-9H-purine] gave a melting point of 175 to 176 °C. Further, the EC90/MIC in data set [1] (MIC data from Table 1) is listed as above 8.01. For the same compound, in data set [1], the EC99 is above 12.5 µg/mL and the “EC^+99” value was above 12.5 µg/mL. Moreover, in data set [2], the MIC is 1.56 µg/mL (≈ 5.09 µM).

As for `COc1cccc(Cn2cnc3c(-c4ccco4)ncnc32)c1` [Example 34, 6-(2-Furyl)-9-(3-methoxyphenylmethyl)-9H-purine], the melting point was 138 to 139 °C. The MIC in data set [2] was 6.25 µg/mL (≈ 20.4 µM).

`COc1ccc(Cn2cnc3c(-c4ccco4)ncnc32)cc1C` [Example 35, 6-(2-Furyl)-9-(4-methoxy-3-methylphenylmethyl)-9H-purine]: the melting point lay in the range of 169 to 170 °C. In addition, the MIC in data set [2] came out at 0.78 µg/mL (≈ 2.43 µM).

Consider `CCOc1ccc(Cn2cnc3c(-c4ccco4)ncnc32)cc1` [Example 39, 9-(4-Ethoxyphenylmethyl)-6-(2-furyl)-9H-purine], for which the melting point lay in the range of 165 to 166 °C. For the same compound, in data set [2], the MIC was 3.13 µg/mL (≈ 9.77 µM).

On to `c1ccc(COc2ccc(Cn3cnc4c(-c5ccco5)ncnc43)cc2)cc1` [Example 40, 9-(4-Benzyloxyphenylmethyl)-6-(2-furyl)-9H-purine], for which the melting point was in the range of 145 to 146 °C. Besides, the MIC in data set [2] came out at 1.56 µg/mL (≈ 4.08 µM).

In turn, `CSc1ccc(Cn2cnc3c(-c4ccco4)ncnc32)cc1` [Example 42, 6-(2-Furyl)-9-(4-methylthiophenylmethyl)-9H-purine] registered a melting point of 157 to 159 °C. In addition, the MIC in data set [2] is 6.25 µg/mL (≈ 19.4 µM).

Turning to `CN(C)c1ccc(Cn2cnc3c(-c4ccco4)ncnc32)cc1` [Example 43, 9-(4-Dimethylaminophenylmethyl)-6-(2-furyl)-9H-purine], the melting point fell in the range of 158 to 160 °C. Further, the MIC in data set [2] was 12.5 µg/mL (≈ 39.1 µM).

`Clc1nc(-c2ccco2)c2ncn(Cc3ccc(Cl)c(Cl)c3)c2n1` [Example 47, 2-Chloro-9-(3,4-dichlorophenylmethyl)-6-(2-furyl)-9H-purine] returned a melting point of 191 to 193 °C. Also, the MIC in data set [2] was 6.25 µg/mL (≈ 16.5 µM).

Regarding `Clc1cccc(Cn2cnc3c(-c4ccco4)nc(Cl)nc32)c1` [Example 48, 2-Chloro-9-(3-chlorophenylmethyl)-6-(2-furyl)-9H-purine], the melting point lay within 196 to 198 °C. Further, the MIC in data set [2] was 3.13 µg/mL (≈ 9.07 µM).

`Fc1ccc(Cn2cnc3c(-c4ccco4)nc(Cl)nc32)cc1` [Example 49, 2-Chloro-9-(4-fluorophenylmethyl)-6-(2-furyl)-9H-purine] came in with a melting point of 152 to 155 °C. Moreover, the MIC in data set [2] was found to be 3.13 µg/mL (≈ 9.52 µM).

For the compound `COc1ccc(Cn2cnc3c(-c4ccco4)nc(Cl)nc32)cc1` [Example 51, 2-Chloro-6-(2-furyl)-9-(4-methoxyphenylmethyl)-9H-purine], in data set [1], the EC99 is 0.67 µg/mL and the “EC^+99” value was found to be 0.02 µg/mL. Moreover, the MIC in data set [2] turned out to be 0.39 µg/mL (≈ 1.14 µM).

The compound `COc1cccc(Cn2cnc3c(-c4ccco4)nc(Cl)nc32)c1` [Example 52, 2-Chloro-6-(2-furyl)-9-(3-methoxyphenylmethyl)-9H-purine] had a melting point of 160 to 161 °C. In data set [2], the MIC turned out to be 3.13 µg/mL (≈ 9.19 µM).

For the compound `COc1ccc(Cn2cnc3c(-c4ccco4)nc(Cl)nc32)cc1C` [Example 53, 2-Chloro-6-(2-furyl)-9-(4-methoxy-3-methylphenylmethyl)-9H-purine], the melting point is 177 to 179 °C. The MIC in data set [2] stood at 0.78 µg/mL (≈ 2.2 µM).

With `COc1ccc(Cn2cnc3c(-c4ccc(OC)cc4)nc(Cl)nc32)cc1` [Example 54, 2-Chloro-6-(4-methoxyphenyl)-9-(4-methoxyphenylmethyl)-9H-purine], the melting point lay in the range of 152 to 154 °C. In data set [2], the MIC was 1.56 µg/mL (≈ 4.1 µM).

As for `COC(c1ccccc1)n1cnc2c(-c3cccs3)nc(Cl)nc21` (centres unmarked) [Example 55, 2-Chloro-9-(methoxyphenylmethyl)-6-(2-thienyl)-9H-purine], the melting point was in the range of 183 to 185 °C. The MIC in data set [2] is 0.78 µg/mL (≈ 2.19 µM).

In turn, `COc1ccc(Cn2cnc3c(-c4ccco4)nc(SC)nc32)cc1` [Example 68, 6-(2-Furyl)-9-(4-methoxyphenylmethyl)-2-methylthio-9H-purine] registered a melting point of 147 to 148 °C. Besides, the MIC in data set [2] stood at 0.78 µg/mL (≈ 2.21 µM).

In turn, `COc1ccc(Cn2ccc3c(-c4ccco4)ncnc32)cc1` [Example 109, 4-(2-Furyl)-7-(4-methoxybenzyl)-7H-pyrrolo[2,3-d]pyrimidine] showed a melting point of 130 to 131 °C. Besides, in data set [2], the MIC is 0.39 µg/mL (≈ 1.28 µM).
